In publication PMC8480759, “Inhibitors of histone deacetylase 6 based on a novel 3-hydroxy-isoxazole zinc binding group” (Journal of Enzyme Inhibition and Medicinal Chemistry, 2021):

What was measured:
HDAC6 [1] = molecular target: T1, HDAC6 (Homo sapiens, UniProt Q9UBN7); experiment: In vitro HDAC6 fluorogenic enzymatic assay; assay type: biochemical; design: purchased BPS Bioscience #50076 (Fluorogenic Assay Kit); conditions: for IC50: recombinant human HDAC6, dose-response 300 µM to 135 nM; for HDAC6 activity at the highest tested concentration: 300 µM, remaining enzyme activity, called inactive
T1 sequence (Q9UBN7 1-1215): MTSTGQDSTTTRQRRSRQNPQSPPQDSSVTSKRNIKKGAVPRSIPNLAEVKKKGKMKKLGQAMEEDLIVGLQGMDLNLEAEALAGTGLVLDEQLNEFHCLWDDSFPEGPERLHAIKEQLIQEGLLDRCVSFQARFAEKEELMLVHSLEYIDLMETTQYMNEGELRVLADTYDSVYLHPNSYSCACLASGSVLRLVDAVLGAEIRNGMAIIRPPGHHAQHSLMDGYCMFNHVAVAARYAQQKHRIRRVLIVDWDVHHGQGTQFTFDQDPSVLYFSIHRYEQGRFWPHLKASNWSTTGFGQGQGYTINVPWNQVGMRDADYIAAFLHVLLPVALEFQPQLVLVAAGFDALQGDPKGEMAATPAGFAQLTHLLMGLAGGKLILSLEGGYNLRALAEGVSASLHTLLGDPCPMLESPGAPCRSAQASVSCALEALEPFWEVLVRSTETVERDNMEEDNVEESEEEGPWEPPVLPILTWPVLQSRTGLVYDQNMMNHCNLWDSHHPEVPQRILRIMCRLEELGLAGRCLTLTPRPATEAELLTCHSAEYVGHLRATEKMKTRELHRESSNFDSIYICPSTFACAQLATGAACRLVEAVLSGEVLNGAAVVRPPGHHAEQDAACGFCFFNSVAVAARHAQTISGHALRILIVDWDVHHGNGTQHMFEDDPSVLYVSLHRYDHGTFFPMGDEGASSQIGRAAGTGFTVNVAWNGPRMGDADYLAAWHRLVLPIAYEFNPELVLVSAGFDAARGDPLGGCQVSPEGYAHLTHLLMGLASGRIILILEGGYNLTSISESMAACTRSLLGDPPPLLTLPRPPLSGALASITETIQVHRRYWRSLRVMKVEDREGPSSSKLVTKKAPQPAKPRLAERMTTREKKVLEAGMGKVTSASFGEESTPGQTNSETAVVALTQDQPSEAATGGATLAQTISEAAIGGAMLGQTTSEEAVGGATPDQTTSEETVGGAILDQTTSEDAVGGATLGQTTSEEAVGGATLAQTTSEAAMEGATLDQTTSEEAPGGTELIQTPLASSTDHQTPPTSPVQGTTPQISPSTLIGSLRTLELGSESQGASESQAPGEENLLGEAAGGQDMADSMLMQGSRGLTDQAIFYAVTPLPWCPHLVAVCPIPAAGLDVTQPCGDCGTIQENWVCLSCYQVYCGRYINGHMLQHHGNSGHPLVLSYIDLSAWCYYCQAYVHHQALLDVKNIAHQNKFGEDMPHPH

HDAC6 [2] = test system: HDAC6; design: method as in ChEMBL (accessed on May 29th, 2020); conditions: ChEMBL ligands most similar to compound 13; ref ChEMBL (accessed on May 29th, 2020); cited from earlier work
[3] = Storage stability at solid state; assay type: physicochemical; conditions: room temperature and −20 °C
Excerpt: In a recent study, we described the effect of different linker chemotypes on the potency and selectivity of a series of HDACi carrying a hydroxamate ZBG[6]. […] Being constituted by a small heteroaromatic ring with hydrogen bond acceptor and donor atoms, we hypothesised that the 3-hydroxy-isoxazole moiety could satisfy the pharmacophore requirements necessary for the coordination of the catalytic zinc ion of HDAC6. Therefore, in this work we investigated a series of 3-hydroxy-isoxazole derivatives bearing different aromatic or heteroaromatic linkers and various cap groups.

[4] = test system: acetylation levels of histone H3 (HDAC1 target) in DU145 cells; experiment: Western blot of histone H3 acetylation in DU145 cells; assay type: cell-based, human; conditions: 24 h, 10 µM
Description: (§1) The results corroborate the inhibitory activity of 17, 23, 25 and 27 at concentrations lower than 10 µM. […] HDACs contribution to CRPC is known[20] and the possibility to arrest CRPC proliferation by acting on HDAC targets is expanding in the scientific literature[21]^,[22]. After administration of the selected compounds for 24 h at 10 µM concentration, the effect on the acetylation levels of histone H3 and α-tubulin (respectively, HDAC1 and HDAC6 targets) was investigated. […] Lastly, in the same cell line, the anti-proliferative effect was measured in dose and time dependent manner (Figure S4).
Figure S3. Western blotting analysis of the tested and reference compounds SAHA and Tubastatin A on acetylation levels of histone H3 and α-tubulin in DU145 cells. GAPDH and H4 were used as a loading control. Densitometric values were analyzed using ImageJ Software and are reported on the top of bands as the ratio between loading control and acetylated target.
(1 picture or pasted object on this page, not shown here) […]
1.4 Western blot analysis
The prostate cancer cell line DU145 (ATCC) was grown in RPMI medium (Euroclone, Milan, Italy) with 10% fetal bovine serum (Euroclone), 2 mM L-glutamine (Euroclone), and antibiotics (100 U/mL penicillin, […] streptomycin) (Euroclone). Cells were stimulated with drugs for […]
Total Protein Extraction and western blot
After the induction with the test compounds at the indicated times and concentrations, DU145 cells were then harvested, washed with phosphate-buffered saline (PBS) (Euroclone), and lysed for 15 min at 4 °C in lysis extraction buffer with protease and phosphatase inhibitors (50 mM Tris -HCl pH 8.0, 150 mM NaCl, 1% NP40, 10 mM sodium fluoride, 0.1 mM sodium orthovanadate, […] phenylmethylsulfonyl fluoride 58 (PMSF), 20 g/mL aprotinin, […] leupeptin, […] antipain, 10 mM p -nitrophenyl phosphate, […] pepstatin A and 20 nM okada ic acid). Cells were vortexed then centrifuged at 13000 rpm for 30 min at 4 °C. Bradford assay (Biorad, Italy) was used to quantify protein concentration. […] The immune complexes were first detected with horseradish peroxidase-conjugated species-specific secondary antiserum (Bio-Rad Laboratories, Milan, Italy), and then by an enhanced chemiluminescence reaction (Bio-Rad Laboratories, Milan, Italy). […]
were harvested and washed twice with cold 1× PBS and lysed in Triton extraction buffer (TEB; PBS containing 0.5% Triton X 100 (v/v), 2 mM PMSF, and 0.02% (w/v) NaN3) for 10 min on ice, with gentle stirring. […] The samples were then centrifuged at 2000 rpm for 10 min at 4 °C; the concentration of protein in the supernatant was determined […]
using a Bradford assay (Bio-Rad, CA, USA). […] Semi-quantitative analysis was performed using ImageJ software. […]

HDAC6 [5] = molecular target: T1, HDAC6; experiment: HDAC6 assay with acetylated p53 peptide (residues 379–382, RHKKAc-AMC) as substrate; assay type: biochemical
DU145 cells = experiment: Anti-proliferative assay (MTT cell viability); assay type: cell-based, human; conditions: for effect on proliferation rate of DU145 cells: 50 µM, MTT, 24, 48, 72 h
Description: as §1
Figure S4. Cell viability assay (MTT) of the tested compounds in human prostate cancer cell lines (DU145). Cells were treated with 4 increasing concentrations (1, 5, 10, and 50 µM) of tested compounds, monitored at 24, 48, and 72 hours and tested with SAHA and Tubastatin A as reference compounds. Data are expressed as mean ± SEM. […]
1.5 Anti-proliferative assay
Cell viability was determined on DU145 cell line using Thiazolyl Blue Tetrazolium Bromide [3-(4,5-dimethylthiazol-2-yl)-2,5-diphenyltetrazolium bromide] (MTT; Sigma-Aldrich) assay after treatment with new compounds at indicated concentrations. A total of 2 × 10^4 cells/well were plated in a 96-well plate and treated, in duplicates, with new compounds at different concentrations for 24, 48, and 72 hours. Absorbance was read at a wavelength of 570 nm with a TECAN M-200 reader (Tecan, Männedorf, Switzerland).

| SMILES | IC50 (HDAC6 [1]) [µM] | IC50 (HDAC6 [2]) [µM] | further results |
| --- | --- | --- | --- |
| O=C(NO)c1ccccc1 [CHEMBL16300] |  | 0.115 |  |
| O=C(C#Cc1ccccc1)NO [Compound 12, N-hydroxy-3-phenyl-propiolamide] |  |  | melting point: 174 to 176 °C; stability on storage [3]: converted into 13 over time |
| Oc1cc(-c2cccc(C(F)(F)F)c2)on1 [Compound 14] | > 300 |  |  |
| Oc1cc(-c2ccc(OCc3ccccc3)cc2)on1 [Compound 17] | 1.3 |  | effect on acetylation levels of histone H3 [4]: no effect; concentration showing inhibitory activity on HDAC6 (HDAC6 [5]): below 10 µM; effect on proliferation rate of DU145 cells (DU145 cells): reduced the proliferation rate |
| O=C(NO)C1CCCCC1 [CHEMBL2333345] |  | 0.376 |  |
| COc1ccc(-c2cc(O)no2)cc1 [Compound 16] | > 300 |  |  |
| O=c1cc(-c2ccccc2)o[nH]1 [Compound 13, 3-hydroxy-5-phenyl-isoxazole] | 98.1 |  | stability on storage [3]: stable |
| Cc1cccc(C(=O)NO)c1 [CHEMBL2381522] |  | 0.65 |  |
| CNc1ccc(C(=O)NO)cc1 [CHEMBL3415449] |  | 1.77 |  |
| Oc1cc(-c2ccccc2Cl)on1 [Compound 15] | > 300 |  |  |
| O=[N+]([O-])c1ccc(-c2cc(O)no2)cc1 [Compound 18] | 16.4 |  |  |
| CNC(=O)c1ccc(C(=O)NO)cc1 [CHEMBL2333343] |  | 0.028 |  |
| O=C(NO)C1=CCCCC1 [CHEMBL2333344] |  | 0.012 |  |
| O=C(NO)C1=CCCC1 [CHEMBL2333346] |  | 0.03 |  |

The next lines start with results.

| IC50 (HDAC6 [1]) [µM] | SMILES | IC50 (HDAC6 [2]) [µM] | further results |
| --- | --- | --- | --- |
| 73.3 | Oc1cc(-c2cccc(Br)c2)on1 [Compound 22] |  |  |
| > 300 | O=C(O)c1cc(-c2ccccc2)on1 [Compound 29, 5-phenylisoxazole-3-carboxylic acid] |  | HDAC6 activity at the highest tested concentration (HDAC6 [1]): more than 55%; HDAC6 inhibition (in words) (HDAC6 [1]; in vitro assays, Table 1): inactive |
| > 300 | Oc1cc(-c2cccc3ccccc23)on1 [Compound 20] |  | HDAC6 activity at the highest tested concentration (HDAC6 [1]): more than 55% |
| 21.9 | Cc1ccc(-c2cc(O)no2)s1 [Compound 24] |  |  |
| 29.6 | Oc1cc(-c2ccc(Br)o2)on1 [Compound 21] |  |  |
| > 300 | Oc1cc(-c2ccc3ccccc3c2)on1 [Compound 19] |  | HDAC6 activity at the highest tested concentration (HDAC6 [1]): more than 55% |
| 8.2 | Oc1cc(-c2ccc(OCc3ccc(Cl)c(Cl)c3)cc2)on1 [Compound 27] |  | effect on acetylation levels of histone H3 [4]: no effect; concentration showing inhibitory activity on HDAC6 (HDAC6 [5]): below 10 µM; effect on proliferation rate of DU145 cells (DU145 cells): reduced the proliferation rate; anti-proliferative activity at the lowest concentrations (DU145 cells; DU145, late phases, lowest concentrations (tested 1, 5, 10, 50 µM)): exerted anti-proliferative activity |
| > 100 | Oc1cc(-c2ccco2)on1 [Compound 26] |  |  |
| 82.3 | Oc1cc(-c2ccc(Br)cn2)on1 [Compound 28] |  |  |
